From ChEMBL document CHEMBL1201862, “PubChem BioAssay data set” (2004) come the findings set out here.

Structures are written as SMILES.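 Exposure lasted 48 hours, with cells grown in 96-well plates and compounds tested at five concentrations. Here, GI50 denotes the concentration required for 50% inhibition of growth.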 The source made the active and inactive calls. Cut-off read from the data, not from the text of the source: active = GI50 up to about 1.1 µM and inactive = higher. Bounds are passed on as bounds.

Test systems include ACHN; M14; EKVX; HOP-62; BT-549; UACC-257; LOX IMVI; CAKI-1; Hs-578T; 786-0; DU-145; A549; MCF7; SK-MEL-2; SF-295; MDA-MB-435; MDA-MB-231; NCI-H226; OVCAR-4; SNB-75.
Common to all, as to test: NCI tumour cell line growth inhibition, 48 h

As to `COC1(CC[C@@H](C)COC2OC(CO)C(O)C(O)C2O)O[C@H]2C[C@H]3[C@@H]4CC=C5C[C@@H](OC6OC(CO)C(O)C(OC7OC(CO)C(O)C(O)C7O)C6OC6OC(C)C(O)C(O)C6O)CC[C@]5(C)[C@H]4CC[C@]3(C)[C@H]2[C@@H]1C` (stereo not given in full), the GI50 in the assay on ACHN was 14.5 µM (inactive); with M14, 2.37 µM (inactive); with EKVX it was 15.9 µM (inactive); in the assay with HOP-62 it was 10.4 µM (inactive); with BT-549, 16.5 µM (inactive); with UACC-257, 11 µM (inactive). For the same compound, the GI50 is 2.8 µM (inactive) with LOX IMVI; 6.35 µM (inactive) with CAKI-1; 8.51 µM (inactive) with Hs-578T; 2.75 µM (inactive) with 786-0; 3.97 µM (inactive) with DU-145; 2.68 µM (inactive) in the assay on A549. Besides, the GI50 in the assay with MCF7 is 16 µM (inactive); with SK-MEL-2, 13.7 µM (inactive); with SF-295, 3.48 µM (inactive); with MDA-MB-435, 2.77 µM (inactive); in the assay with MDA-MB-231 it was 0.885 µM (active); in the assay on NCI-H226, 9.95 µM (inactive). Besides, the GI50 was 9.91 µM (inactive) with OVCAR-4 and 3.33 µM (inactive) in the assay on SNB-75.
Take `Cc1ccc(S(=O)(=O)SC(C)(C)C)cc1`: the GI50 with ACHN is 38.5 µM (inactive); in the assay on M14 it was 31.6 µM (inactive); in the assay with EKVX it was > 45.8 µM (inactive); in the assay on HOP-62, > 60.3 µM (inactive); in the assay on BT-549 it was 22.4 µM (inactive); in the assay on UACC-257, 21.6 µM (inactive). In addition, the GI50 was 21.9 µM (inactive) with LOX IMVI; 22.2 µM (inactive) in the assay on CAKI-1; 34.2 µM (inactive) in the assay on Hs-578T; 16.9 µM (inactive) in the assay with 786-0; > 100 µM (inactive) in the assay on DU-145; > 100 µM (inactive) in the assay with A549. In addition, the GI50 in the assay with MCF7 was 19.2 µM (inactive); with SK-MEL-2, 33.2 µM (inactive); in the assay on SF-295, > 100 µM (inactive); with MDA-MB-435, 31.4 µM (inactive); with MDA-MB-231, 24.7 µM (inactive); in the assay with NCI-H226 it was > 86.7 µM (inactive). Also, the GI50 is 22.2 µM (inactive) with OVCAR-4 and > 63.5 µM (inactive) in the assay on SNB-75.
Turning to `CCCCN(CCCC)CC(=O)c1ccc2cc(Cl)c3ccccc3c2c1`, the GI50 in the assay with ACHN is 20.4 µM (inactive); in the assay with M14, 76 µM (inactive); in the assay with EKVX, 67.3 µM (inactive); in the assay with HOP-62 it was 50 µM (inactive); in the assay on BT-549, 19.1 µM (inactive); in the assay on UACC-257, 31.9 µM (inactive). Besides, the GI50 in the assay on LOX IMVI is 23.4 µM (inactive); with CAKI-1 it was 29.5 µM (inactive); in the assay with Hs-578T, 35.7 µM (inactive); in the assay on 786-0 it was 57.4 µM (inactive); with DU-145, > 100 µM (inactive); with A549, 27.2 µM (inactive). Moreover, the GI50 was 30.1 µM (inactive) in the assay with MCF7; 25.5 µM (inactive) in the assay on SK-MEL-2; 31 µM (inactive) with SF-295; 30.4 µM (inactive) in the assay with MDA-MB-435; 31.4 µM (inactive) in the assay on MDA-MB-231; 25.3 µM (inactive) in the assay with NCI-H226. Also, the values for the GI50 in the assay with OVCAR-4 and with SNB-75 were 24.2 µM (inactive) and 29.8 µM (inactive), respectively.
Turning to `O=c1c2c(no[n+]2[O-])c2ccccc2n1-c1ccccc1`, the GI50 with ACHN is 11.4 µM (inactive); in the assay on M14, 2.65 µM (inactive); in the assay with EKVX it was 12.6 µM (inactive); in the assay on HOP-62 it was 15.1 µM (inactive); in the assay with BT-549, 3.03 µM (inactive); in the assay on UACC-257 it was 13 µM (inactive). For the same compound, the GI50 was 1.69 µM (inactive) in the assay on LOX IMVI; 2.65 µM (inactive) in the assay on CAKI-1; 18.6 µM (inactive) in the assay with Hs-578T; 2.89 µM (inactive) in the assay on 786-0; 20.4 µM (inactive) in the assay on DU-145; 17.9 µM (inactive) in the assay on A549. The GI50 in the assay on MCF7 was 4.57 µM (inactive); in the assay with SK-MEL-2 it was 11.8 µM (inactive); in the assay with SF-295, 14.8 µM (inactive); in the assay on MDA-MB-435 it was 5.43 µM (inactive); in the assay on MDA-MB-231, 12.6 µM (inactive); in the assay on NCI-H226, 9.93 µM (inactive). For the same compound, the GI50 in the assay with OVCAR-4 is 6.18 µM (inactive); in the assay on SNB-75, 10 µM (inactive).
For `CC(C)n1c2c([n+](C)c1/C=C/c1ccccc1)C(=O)c1ccccc1C2=O`, the GI50 with ACHN is 2 µM (inactive); in the assay on M14, 0.318 µM (active); in the assay on EKVX, 0.206 µM (active); in the assay on HOP-62, 0.398 µM (active); in the assay with BT-549 it was 0.241 µM (active); in the assay with UACC-257, 0.0398 µM (active). Besides, the GI50 with LOX IMVI is 0.0721 µM (active); in the assay with CAKI-1, 2.79 µM (inactive); with Hs-578T it was 1.91 µM (inactive); in the assay with 786-0, 0.259 µM (active); in the assay with DU-145, 0.34 µM (active); in the assay on A549 it was 0.587 µM (active). Also, the GI50 with MCF7 was 0.0516 µM (active); in the assay with SK-MEL-2, 0.116 µM (active); in the assay on SF-295 it was 0.916 µM (active); in the assay on MDA-MB-435, 0.237 µM (active); in the assay with MDA-MB-231, 0.166 µM (active); in the assay on NCI-H226, 0.791 µM (active). Further, the values for the GI50 with OVCAR-4 and in the assay on SNB-75 were 0.0278 µM (active) and 0.419 µM (active), respectively.
As to `COc1cc(CCNC2=CC(=O)c3nc[nH]c3C2=O)ccc1O`, the GI50 with ACHN is 30.3 µM (inactive); with M14, 17.5 µM (inactive); in the assay on EKVX, 21.2 µM (inactive); in the assay with HOP-62 it was 40.1 µM (inactive); in the assay with BT-549, 24.7 µM (inactive); in the assay on UACC-257 it was 19.8 µM (inactive). The GI50 was 19 µM (inactive) in the assay with LOX IMVI; 48.3 µM (inactive) with CAKI-1; 25.2 µM (inactive) in the assay on Hs-578T; 35.7 µM (inactive) in the assay on 786-0; 20 µM (inactive) in the assay on DU-145; 26.6 µM (inactive) in the assay with A549. Moreover, the GI50 in the assay on MCF7 was 17.1 µM (inactive); in the assay on SK-MEL-2 it was 21.4 µM (inactive); with SF-295, 28.4 µM (inactive); in the assay on MDA-MB-435 it was 17.6 µM (inactive); in the assay with MDA-MB-231 it was 30.9 µM (inactive); with NCI-H226, 31.5 µM (inactive). In addition, the GI50 with OVCAR-4 was 15.4 µM (inactive); in the assay with SNB-75, 19 µM (inactive).
Turning to `CC1=Nc2c(O)nc(S)nc2NC(c2c(Cl)cccc2Cl)C1` (stereo not given), the GI50 was 4.86 µM (inactive) in the assay with ACHN; 2.32 µM (inactive) in the assay with M14; 7.18 µM (inactive) in the assay on EKVX; 6.84 µM (inactive) in the assay on HOP-62; 1.24 µM (inactive) in the assay with BT-549; 3.07 µM (inactive) in the assay with UACC-257. Besides, the GI50 was 0.766 µM (active) in the assay on LOX IMVI; 5.51 µM (inactive) in the assay with CAKI-1; 0.589 µM (active) in the assay with Hs-578T; 0.902 µM (active) in the assay on 786-0; 1.95 µM (inactive) with DU-145; 3.43 µM (inactive) in the assay on A549. Moreover, the GI50 is 1.13 µM (inactive) in the assay on MCF7; 18 µM (inactive) with SK-MEL-2; 1.61 µM (inactive) with SF-295; 1.49 µM (inactive) in the assay on MDA-MB-435; 0.519 µM (active) with MDA-MB-231; 5.21 µM (inactive) with NCI-H226. Also, the values for the GI50 with OVCAR-4 and in the assay on SNB-75 were 2.74 µM (inactive) and 3.34 µM (inactive), respectively.
As to `O=c1cc(/N=N\c2ccc(Cl)cc2)[nH]c(=O)[nH]1`, the GI50 was 2.32 µM (inactive) in the assay with ACHN; 3.95 µM (inactive) in the assay on M14; 4.09 µM (inactive) in the assay on EKVX; 7.74 µM (inactive) in the assay with HOP-62; 3.88 µM (inactive) with BT-549; 4.83 µM (inactive) in the assay with UACC-257. Besides, the GI50 was 1.57 µM (inactive) with LOX IMVI; 0.923 µM (active) with CAKI-1; 5.68 µM (inactive) with Hs-578T; 1.66 µM (inactive) with 786-0; 9.23 µM (inactive) in the assay on DU-145; 10.1 µM (inactive) in the assay with A549. Besides, the GI50 with MCF7 is 3.97 µM (inactive); in the assay with SK-MEL-2, 13.3 µM (inactive); in the assay on SF-295 it was 13.9 µM (inactive); with MDA-MB-435 it was 4.84 µM (inactive); in the assay on MDA-MB-231, 3.6 µM (inactive); with NCI-H226, 12.9 µM (inactive). The GI50 in the assay with OVCAR-4 is 4.42 µM (inactive); with SNB-75 it was 14.5 µM (inactive).
As for `COc1cc(/C=C2\CC/C(=C\c3cc(OC)c(O)c(OC)c3)C2=O)cc(OC)c1O`, the GI50 in the assay with ACHN is 2.05 µM (inactive); in the assay with M14, 2.19 µM (inactive); in the assay with EKVX, 3.13 µM (inactive); in the assay with HOP-62 it was 3.13 µM (inactive); with BT-549, 2.69 µM (inactive); in the assay on UACC-257, 2.03 µM (inactive). Further, the GI50 with LOX IMVI is 2.29 µM (inactive); in the assay with CAKI-1, 2.72 µM (inactive); in the assay on Hs-578T, 2.09 µM (inactive); in the assay on 786-0 it was 4.9 µM (inactive); in the assay on DU-145, 2.21 µM (inactive); in the assay with A549, 3.19 µM (inactive). The GI50 was 1.91 µM (inactive) with MCF7; 0.667 µM (active) with SK-MEL-2; 3.98 µM (inactive) in the assay with SF-295; 1.39 µM (inactive) in the assay on MDA-MB-435; 2.14 µM (inactive) with MDA-MB-231; 3.94 µM (inactive) with NCI-H226. In addition, the GI50 in the assay with OVCAR-4 was 1.69 µM (inactive); with SNB-75, 1.19 µM (inactive).
Take `Cc1c2cccc-2ccc2c1[nH]c1ccccc12`: the GI50 was 1.77 µM (inactive) in the assay with ACHN; 1.73 µM (inactive) in the assay on M14; 1.45 µM (inactive) in the assay on EKVX; 3.49 µM (inactive) in the assay with HOP-62; 3.24 µM (inactive) with BT-549; 1.68 µM (inactive) with UACC-257. Further, the GI50 in the assay on LOX IMVI is 2.55 µM (inactive); in the assay on CAKI-1, 6.31 µM (inactive); in the assay on Hs-578T, 2.34 µM (inactive); in the assay with 786-0, 2.81 µM (inactive); in the assay on DU-145 it was 4.55 µM (inactive); in the assay with A549 it was 2.22 µM (inactive). Further, the GI50 with MCF7 was 3.06 µM (inactive); with SK-MEL-2, 1.8 µM (inactive); in the assay with SF-295, 2.38 µM (inactive); in the assay on MDA-MB-435, 2.27 µM (inactive); in the assay with MDA-MB-231 it was 1.76 µM (inactive); with NCI-H226, 1.97 µM (inactive). The GI50 was 2.23 µM (inactive) in the assay on OVCAR-4 and 2.14 µM (inactive) in the assay with SNB-75.
